Test results reported in the NIST ThermoML archive (doi:10.1016/j.jct.2008.11.012).
± gives the expanded uncertainty stated by the source.

Key:
[1] = 101 kPa, Liquid; for viscosity: Concentric cylinders viscometry; for mass density: Vibrating tube method
[2] = xn = mol fraction of the nth substance listed; conditions: 101 kPa, Liquid, x2 = 0; for viscosity: Concentric cylinders viscometry; for mass density: Vibrating tube method

Row | SMILES | viscosity ([1]; 293.15 K) [mPa·s] | mass density ([1]; 293.15 K) [kg/m3] | viscosity ([1]; 303.15 K) [mPa·s] | mass density ([1]; 303.15 K) [kg/m3] | viscosity ([1]; 313.15 K) [mPa·s] | mass density ([1]; 313.15 K) [kg/m3] | viscosity ([1]; 323.15 K) [mPa·s] | mass density ([1]; 323.15 K) [kg/m3] | viscosity ([1]; 333.15 K) [mPa·s] | mass density ([1]; 333.15 K) [kg/m3] | viscosity ([1]; 343.15 K) [mPa·s] | mass density ([1]; 343.15 K) [kg/m3] | viscosity ([1]; 353.15 K) [mPa·s] | mass density ([1]; 353.15 K) [kg/m3] | viscosity ([1]; 363.15 K) [mPa·s] | mass density ([1]; 363.15 K) [kg/m3] | other results
1 | NCCNCCN [di(2-aminoethyl)amine] | 7.038 ± 0.28 | 951 ± 1 | 4.804 ± 0.19 | 942.3 ± 1 | 3.4 ± 0.14 | 933.8 ± 1 | 2.695 ± 0.11 | 925.5 ± 1 | 2.109 ± 0.086 | 917 ± 1 | 1.703 ± 0.069 | 908.9 ± 1 | 1.409 ± 0.057 | 900.4 ± 1 | 1.19 ± 0.049 | 891.9 ± 1 | 
2 | O [water] | 1.006 ± 0.041 | 999.2 ± 1 | 0.7988 ± 0.033 | 996.5 ± 1 | 0.6546 ± 0.027 | 993 ± 1 | 0.5427 ± 0.023 | 988.7 ± 1 | 0.4596 ± 0.019 | 983.7 ± 1 | 0.4271 ± 0.018 | 978.3 ± 1 | 0.3731 ± 0.016 | 972.3 ± 1 | 0.2983 ± 0.013 | 965.9 ± 1 | 
3 | O [water] + NCCNCCN |  |  |  |  |  |  |  |  |  |  |  |  |  |  |  |  | viscosity ([2]; 293.15 K): 1.006 ± 0.041 mPa·s; mass density ([2]; 293.15 K): 999.2 ± 1 kg/m3; viscosity ([2]; 303.15 K): 0.7988 ± 0.033 mPa·s; mass density ([2]; 303.15 K): 996.5 ± 1 kg/m3; viscosity ([2]; 313.15 K): 0.6546 ± 0.027 mPa·s; mass density ([2]; 313.15 K): 993 ± 1 kg/m3; viscosity ([2]; 323.15 K): 0.5427 ± 0.023 mPa·s; mass density ([2]; 323.15 K): 988.7 ± 1 kg/m3; viscosity ([2]; 333.15 K): 0.4596 ± 0.019 mPa·s; mass density ([2]; 333.15 K): 983.7 ± 1 kg/m3; viscosity ([2]; 343.15 K): 0.4271 ± 0.018 mPa·s; mass density ([2]; 343.15 K): 978.3 ± 1 kg/m3; viscosity ([2]; 353.15 K): 0.3731 ± 0.016 mPa·s; mass density ([2]; 353.15 K): 972.3 ± 1 kg/m3; viscosity ([2]; 363.15 K): 0.2983 ± 0.013 mPa·s; mass density ([2]; 363.15 K): 965.9 ± 1 kg/m3
